Laboratory results reported in patent US10604523B2, “1-aryl-4-methyl-[1,2,4]triazolo[4,3-a]quinoxaline derivatives” (Janssen Pharmaceutica NV, priority 2011, dated 2020).
Read-outs that look alike come from different tables or passages of the source.

What was measured:
[1] = Brain radiometabolite analysis of [18F]B-23; assay type: in vivo, rat
Protocol: (§1) The metabolic stability of the tracer was studied in normal rats by determination of the relative amounts of parent tracer and radiometabolites in plasma and brain at 2 min and 10 min p.i. of the tracer. […] (n=1), blood was collected in lithium heparin containing tubes (4.5 mL LH PST tubes; BD vacutainer, BD, Franklin Lakes, USA) and stored on ice. Brain was dissected and rinsed with saline (decapitation was preferred since it was difficult to have the rat perfused already at 2 min p.i.). For the 10 min timepoint, rats (n=1) were injected with about 37 MBq of tracer and sacrificed at 10 min p.i by administering an overdose of Nembutal (CEVA Sante Animale, 200 mg/kg intraperitoneal). The rats were perfused by injection of saline into the left ventricle until the liver turned pale. During perfusion, blood was collected and stored on ice. Brain was isolated.
For the brain radiometabolite analysis, cerebrum and cerebellum were separated and homogenized in 3 mL and 2 mL of acetonitrile respectively, for about 3 min. A volume of 1 mL of this homogenate was diluted with an equal volume of water and 1 mL of the supernatant was filtered through a 0.22 μm filter (Millipore, Bedford, USA). About 0.5 mL of the filtrate was diluted with 0.1 mL of water and spiked with 10 μL of authentic reference material (1 mg/mL) for identification. A volume of 0.5 mL of the homogenate extracts were injected onto an HPLC system consisting of an analytical XBridge column (C18, 3.5 μm, 3 mm×100 mm, Waters) eluted with a mixture of 0.05 M sodium acetate (pH 5.5) and CH3CN (76:24 v/v) at a flow rate of 0.8 mL/min. The HPLC eluate was collected as 0.8-mL fractions (fraction collection per minute) after passing through the UV detector (254 nm), and radioactivity in the fractions was measured using an automated gamma counter. The peak corresponding to the intact tracer eluted around 10 min, the polar radiometabolite(s) around 5 min.

[2] = Plasma radiometabolite analysis of [18F]B-23; assay type: in vivo, rat; settings: for recovered radioactivity present as intact tracer in plasma: n=1
Protocol: as §1
For the plasma radiometabolite analysis, the blood was centrifugated for 10 min at 3000 rpm to separate the plasma. A volume of about 0.1 mL of plasma sample was isolated and spiked with about 10 μL of authentic non-radioactive reference material (1 mg/mL) for identification. The plasma was then injected onto an HPLC system consisting of a Chromolith Performance column (C18, 3 mm×100 mm, Merck) that was eluted with mixtures of 0.05 M NaOAc pH 5.5 (solvent A) and acetonitrile (solvent B). The following method was used for the analysis: isocratic elution with 100% A for 4 min at a flow rate of 0.5 mL/min, then linear gradient to 90% B by 14 min at a flow rate of 1 mL/min, and isocratic elution with a mixture of 10% A and 90% B at a flow rate of 1 mL/min until 17 min. After passing through an in-line UV detector (254 nm) and over a 3 in. NaI(Tl) scintillation detector connected to a single channel analyzer (Gabi box, Raytest, Straubenhardt Germany), the HPLC eluate was collected per minute using an automatic fraction collector. The radioactivity in all fractions was measured using an automated gamma counter. The peak corresponding to the intact tracer eluted at ˜11 min. Polar radiometabolite(s) were eluting from 1 to 3 min. Slightly more polar radiometabolites (relatively to the polarity of the intact tracer) were eluting just before the intact tracer. Faster metabolisation is observed in plasma compared to brain. At 2 min p.i., about 70% of the recovered radioactivity was present as intact tracer. Two more polar radiometabolites (M1, M3) were observed of which one (M3) was closely eluting to the intact tracer. At 10 min p.i., the presence of a large amount of a third polar metabolite (M2, also closely eluting to the parent compound) was observed which accounted for about 60% of the recovered radioactivity. At 10 min p.i., only ˜20% of the recovered radioactivity was still present as intact tracer.

[3] = Biodistribution study of [18F]B-23; settings: mean ± SD, n = 3
Protocol: (§2) The biodistribution study was carried out in male Wistar rats (body weight 320-370 g) at 2 min, 10 min and 30 min post injection (p.i.) (n=3/time point). […] Blood and major organs were collected in tared tubes and weighed. The radioactivity in blood, organs and other body parts was measured using an automated gamma counter. The distribution of radioactivity in different parts of the body at different time points p.i. of the tracer was calculated and expressed as percentage of injected dose (% ID), and as standardized uptake values (SUV) for the selected organs. % ID is calculated as counts per minute (cpm) in organ/total cpm recovered. SUVs are calculated as (radioactivity in cpm in organ/weight of the organ in g)/(total counts recovered/body weight in g). For calculation of total radioactivity in blood, blood mass was assumed to be 7% of the body mass.

[4] = male, Wistar, rat, in vivo
Protocol: as §2

Cc1nc2ccc(CN3CCOCC3)cc2n2c(-c3c([18F])cccc3Cl)nnc12 [[^18F]B-23, 1-(2-Chloro-6-[^18F]fluorophenyl)-4-methyl-8-(morpholin-4-ylmethyl)[1,2,4]triazolo[4,3-a]quinoxaline]
apolar radiometabolites in brain ([1]; 2 and 10 min p.i.): No apolar radiometabolites were detected
intact tracer in cerebrum and cerebellum ([1]; 2 min p.i., n=1): almost all of the recovered radioactivity in cerebrum and in cerebellum was present as intact tracer
% of intact tracer in cerebellum ([1]; 10 min p.i., n=1): 82%
apolar radiometabolites in plasma ([2]; 2 and 10 min p.i.): No apolar radiometabolites were detected
recovered radioactivity present as intact tracer in plasma ([2]; 2 min p.i.): about 70%
recovered radioactivity present as intact tracer in plasma ([2]; 10 min p.i.): ~20%
SUV Blood ([3]; 2 min p.i.): 0.96 ± 0.05
SUV Cerebellum ([3]; 2 min p.i.): 1.22 ± 0.23
SUV Cortex ([3]; 2 min p.i.): 2.36 ± 0.48
SUV Hippocampus ([3]; 2 min p.i.): 1.87 ± 0.22
SUV Rest of cerebrum ([3]; 2 min p.i.): 2.63 ± 0.41
SUV Striatum ([3]; 2 min p.i.): 4.36 ± 0.42
SUV Blood ([3]; 10 min p.i.): 0.90 ± 0.08
SUV Cerebellum ([3]; 10 min p.i.): 0.27 ± 0.02
SUV Cortex ([3]; 10 min p.i.): 0.53 ± 0.02
SUV Hippocampus ([3]; 10 min p.i.): 0.33 ± 0.04
SUV Rest of cerebrum ([3]; 10 min p.i.): 0.57 ± 0.02
SUV Striatum ([3]; 10 min p.i.): 1.77 ± 0.08
SUV Blood ([3]; 30 min p.i.): 0.59 ± 0.08
SUV Cerebellum ([3]; 30 min p.i.): 0.12 ± 0.04
SUV Cortex ([3]; 30 min p.i.): 0.15 ± 0.04
SUV Hippocampus ([3]; 30 min p.i.): 0.14 ± 0.04
SUV Rest of cerebrum ([3]; 30 min p.i.): 0.22 ± 0.08
SUV Striatum ([3]; 30 min p.i.): 0.61 ± 0.20
% of the ID in the cerebellum ([4]; 2 min): ~0.1%
% of the ID in the cerebrum ([4]; 2 min): ~1.0%
% of the injected dose present in the blood ([4]; 2 min): about 6.7%
total brain uptake of the tracer (% ID) ([4]; 2 min): ~1.2%
% ID in the brain ([4]; 10 min): 0.2%
% ID in the brain ([4]; 30 min): 0.1 % ID
% ID in the urine and the kidneys ([4]; 30 min): 19 % ID
% of ID present in the liver and intestines ([4]; 30 min): 49%
% of the injected dose present in the blood ([4]; 30 min): 4.1%
